Legend:
[1] = tested on: Osteocalcin in rat serum; assay: Osteocalcin (OC) in rat serum (Example 4); assay type: in vivo; conditions: Orx rats; for OC (osteocalcin) levels in serum: 10 days; for inhibitory effect on OC levels: 28 days
Protocol: This assay is specific for rat Osteocalcin and both carboxylated and decarboxylated rat Osteocalcin are recognized. A monoclonal antibody against the N-terminal region of Osteocalcin is bound to the polystyrene wells. The assay was performed in duplicates. 100 ul of standards, control and 1 to 20 diluted samples were added to appropriate wells and incubated overnight at 4 C. After washing the strips, 100 ul of Goat polyclonal antibody of high specificity for C-terminus of rat Osteocalcin was added and incubated 60 min at 37 C. After washing, 100 ul of Donkey anti-goat IgG peroxidase conjugated antibody was added and incubated 60 min at 22 C. The wells were washed and a mix of TMB and peroxide solution was added and incubated 30 min at 22 C in the dark. The reaction was stopped, and the absorbance was measured at 450 nm. A standard curve was constructed using 4-parametric logistic curve fit. Sample osteocalcin concentrations were determined by interpolation. Eight month-old male Sprague Dawley rats were either sham-operated (SHAM) or orchidectomized (ORX). Treatment began immediately following surgery. The treatment groups were as described in Table 5.

[2] = tested on: orchidectomized rats (ORX); assay: Static and dynamic bone histomorphometry of the proximal tibia (Example 4); assay type: in vivo, rat; conditions: for loss of trabecular bone volume at the proximal tibia: 10 mg/kg/d Tor; for loss of trabecular bone volume at the proximal tibia / Orx-induced increase in bone turnover parameters at the proximal tibia: E 0.2 mg/kg/d; for Orx-induced increase in bone turnover parameters at the proximal tibia: Tor 5 and 10 mg/kg/d, p<0.05 vs. Orx+vehicle; for Bone Form Rate, Bone Volume Ref / Bone Form. Rate, Bone Surface Ref / Bone Formation Rate, Tissue Volume Ref / Mineral Apposition Rate / Mineralizing Surface / Osteoclast Number/Bone Surface / Osteoclast Surface / Trabecular Bone Volume / Trabecular Number / Trabecular Separation / Trabecular Thickness: proximal tibia, 6 wks, mean
Protocol: (§1) Eight month-old male Sprague Dawley rats were either sham-operated (SHAM) or orchidectomized (ORX). Treatment began immediately following surgery. The treatment groups were as described in Table 5.
Animals were given calcein (intraperitoneally) 12 and 2 days prior to sacrifice. Femurs and lumbar vertebra (L5) were preserved frozen wrapped in saline-soaked gauze. Tibiae and lumbar vertebrae (L4) were preserved in 10% formalin for 48 hours, then transferred to 70% ethanol for long-term storage.
Histology and Static and Dynamic Bone Histomorphometry: Approximately 1.1 cm of the proximal tibia was cut away and the frontal face was trimmed with a low-speed diamond wheel saw to expose the marrow cavity. The L4 lumbar vertebral body was prepared from the lumbar vertebra by trimming off the processes with a slow-speed diamond saw. Each proximal tibia and lumbar vertebral body was dehydrated in a series of ascending ethanol (EtOH) concentrations. Following dehydration, the bone samples were infiltrated and then embedded in a methyl methacrylate-dibutyl phthalate plastic composite. Embedded samples of the proximal tibiae were sectioned using a Leitz motorized rotary microtome equipped with a tungsten-carbide microtome knife. Once the blocks had been trimmed and faced to the sampling site, a 4-micron section was stained with Goldner's trichrome stain for bright field microscopy and an 8-micron section was left unstained for epifluorescent microscopy. Embedded lumbar vertebral body samples were also sectioned using a Leitz motorized rotary microtome equipped with a tungsten-carbide microtome knife. Once the blocks had been trimmed and faced to the sampling site, a 4-micron section was stained with Goldner's trichrome stain for bright field microscopy and an 8-micron section was left unstained for epifluorescent microscopy.
The cancellous bone in the secondary spongiosa of the proximal tibia was evaluated in a region of interest (ROI) that was 1.0 mm distal to the lowest point of the growth plate in a rectilinear region of 3×2 fields. The cancellous bone in the marrow cavity of the lumbar vertebral body was evaluated in a ROI that was approximately 0.5 mm away from the end plates and dorsal and ventral cortices.
The bone histomorphometry was performed using an OsteoMeasure software program (OsteoMetrics, Inc., Atlanta, Ga.) interfaced with a Nikon Eclipse E400 light/epifluorescent microscope and video subsystem. All slides were analyzed in a blinded manner. Total tissue area, trabecular bone area, trabecular bone perimeter and osteoclast perimeter and number were measured on 4 μm Goldner's trichrome-stained sections. Percent trabecular bone area, trabecular number, trabecular thickness, trabecular separation, osteoclast perimeter as a percentage of bone surface and osteoclast number per unit of bone surface were then calculated according to standardized formulae. For deriving the dynamic parameters, single-labeled calcein perimeter, double-labeled calcein perimeter and interlabel width (label thickness) were measured on 8 μm unstained sections. Mineralizing surface, mineral apposition rate and bone formation rate-surface, bone and tissue referents were calculated.

[3] = tested on: orchidectomized rats (ORX); assay: Ex vivo DXA of the femur (BMC, BA, BMD) (Example 4); assay type: in vivo, rat; conditions: for Distal femur Bone Area / Distal femur Bone Mineral Content / Distal femur Bone Mineral Density / Midshaft femur Bone Area / Midshaft femur Bone Mineral Content / Midshaft femur Bone Mineral Density / Proximal femur Bone Area / Proximal femur Bone Mineral Content / Proximal femur Bone Mineral Density / Whole femur Bone Area / Whole femur Bone Mineral Content / Whole femur Bone Mineral Density: ORX rats, 6 wks, mean; for bone mass of the whole femur (DXA): 6 weeks of treatment; for loss in bone mineral density at the proximal femur (DXA): 10 mg/kg/d Tor, E 0.2 mg/kg/d; for bone density at the distal femur (DXA): 10 mg/kg/d toremifene, E 0.2 mg/kg/d (p<0.05 vs. Orx+Vehicle for E)
Protocol: as §1
Ex vivo DXA analysis was performed on the vertebra (L5) using a PIXImus instrument and associated animal research software (Lunar Corporation, Madison, Wis.). Bone mineral content (BMC), bone area (BA) and bone mineral density (BMD) are reported. Ex vivo DXA analysis was performed on the femur using a pDXA Sabre and associated animal research software (Norland Medical Systems, Inc., Fort Atkinson, Wis.). BMC, BA and BMD are reported for four regions of interest: whole femur, 25% distal femur, 25% proximal femur and 50% of midshaft femur.

[4] = Toremifene 5 mg/kg/d, Estradiol 0.2 mg/kg/d

CN(C)CCOc1ccc(/C(=C(/CCCl)c2ccccc2)c2ccccc2)cc1 [Toremifene]
OC (osteocalcin) levels in serum ([1]; 10 mg-Tor): reversed OC levels to slightly below that of Sham group
OC (osteocalcin) levels in serum ([1]; E 0.2 mg/kg/d, 5 mg-Tor): reversed OC levels to slightly below that of Sham group
inhibitory effect on OC levels ([1]; continued at 42 days, 10 mg-Tor): more pronounced than both 5 mg Tor and E
inhibitory effect on OC levels ([1]; 5 mg-Tor): same as E
loss of trabecular bone volume at the proximal tibia [2]: very effective in preventing loss of trabecular bone volume
Orx-induced increase in bone turnover parameters at the proximal tibia [2]: significantly reduced the Orx-induced elevation in bone turnover parameters
Bone Form Rate, Bone Volume Ref [2, 4]: 58.20 %/yr
Bone Form. Rate, Bone Surface Ref [2, 4]: 10.78 um^3/um^2/yr
Bone Formation Rate, Tissue Volume Ref [2, 4]: 2.30 %/yr
Mineral Apposition Rate [2, 4]: 0.32 um/day
Mineralizing Surface [2, 4]: 6.67%
Osteoclast Number/Bone Surface [2, 4]: 3.98 #/mm
Osteoclast Surface [2, 4]: 6.61%
Trabecular Bone Volume [2, 4]: 5.33%
Trabecular Number [2, 4]: 1.30 #/mm
Trabecular Separation [2, 4]: 837.67 um
Trabecular Thickness [2, 4]: 41.39 um
Bone Form Rate, Bone Volume Ref ([2]; Toremifene 10 mg/kg/d): 21.26 %/yr
Bone Form. Rate, Bone Surface Ref ([2]; Toremifene 10 mg/kg/d): 4.78 um^3/um^2/yr
Bone Formation Rate, Tissue Volume Ref ([2]; Toremifene 10 mg/kg/d): 2.07 %/yr
Mineral Apposition Rate ([2]; Toremifene 10 mg/kg/d): 0.34 um/day
Mineralizing Surface ([2]; Toremifene 10 mg/kg/d): 3.02%
Osteoclast Number/Bone Surface ([2]; Toremifene 10 mg/kg/d): 3.33 #/mm
Osteoclast Surface ([2]; Toremifene 10 mg/kg/d): 5.27%
Trabecular Bone Volume ([2]; Toremifene 10 mg/kg/d): 8.81%
Trabecular Number ([2]; Toremifene 10 mg/kg/d): 1.85 #/mm
Trabecular Separation ([2]; Toremifene 10 mg/kg/d): 570.89 um
Trabecular Thickness ([2]; Toremifene 10 mg/kg/d): 45.54 um
Distal femur Bone Area [3, 4]: 0.649 cm^2
Distal femur Bone Mineral Content [3, 4]: 0.145 gm
Distal femur Bone Mineral Density [3, 4]: 0.224 gm/cm^2
Midshaft femur Bone Area [3, 4]: 1.086 cm^2
Midshaft femur Bone Mineral Content [3, 4]: 0.271 gm
Midshaft femur Bone Mineral Density [3, 4]: 0.249 gm/cm^2
Proximal femur Bone Area [3, 4]: 0.658 cm^2
Proximal femur Bone Mineral Content [3, 4]: 0.154 gm
Proximal femur Bone Mineral Density [3, 4]: 0.234 gm/cm^2
Whole femur Bone Area [3, 4]: 2.389 cm^2
Whole femur Bone Mineral Content [3, 4]: 0.570 gm
Whole femur Bone Mineral Density [3, 4]: 0.238 gm/cm^2
Distal femur Bone Area ([3]; Toremifene 10 mg/kg/d): 0.659 cm^2
Distal femur Bone Mineral Content ([3]; Toremifene 10 mg/kg/d): 0.152 gm
Distal femur Bone Mineral Density ([3]; Toremifene 10 mg/kg/d): 0.230 gm/cm^2
Midshaft femur Bone Area ([3]; Toremifene 10 mg/kg/d): 1.094 cm^2
Midshaft femur Bone Mineral Content ([3]; Toremifene 10 mg/kg/d): 0.286 gm
Midshaft femur Bone Mineral Density ([3]; Toremifene 10 mg/kg/d): 0.261 gm/cm^2
Proximal femur Bone Area ([3]; Toremifene 10 mg/kg/d): 0.672 cm^2
Proximal femur Bone Mineral Content ([3]; Toremifene 10 mg/kg/d): 0.164 gm
Proximal femur Bone Mineral Density ([3]; Toremifene 10 mg/kg/d): 0.244 gm/cm^2
Whole femur Bone Area ([3]; Toremifene 10 mg/kg/d): 2.420 cm^2
Whole femur Bone Mineral Content ([3]; Toremifene 10 mg/kg/d): 0.601 gm
Whole femur Bone Mineral Density ([3]; Toremifene 10 mg/kg/d): 0.248 gm/cm^2
bone mineral density at the midshaft femur (DXA) ([3]; Orx rats, 6 weeks): did not show any effect
bone mass of the whole femur (DXA) ([3]; Orx rats): did not exhibit any significant effect
loss in bone mineral density at the proximal femur, as in distal femur (DXA) ([3]; Orx rats, 6 weeks, 5 mg/kg/d Tor): ineffective
loss in bone mineral density at the proximal femur (DXA) ([3]; Orx rats, 6 weeks): somewhat helpful in preventing this loss
bone density at the distal femur (DXA) ([3]; Orx rats, 6 weeks): prevented Orx-related loss of bone density

C[C@]12CC[C@@H]3c4ccc(O)cc4CC[C@H]3[C@@H]1CC[C@@H]2O [17-β-Estradiol]
OC (osteocalcin) levels in serum ([1]; E 0.2 mg/kg/d, 5 mg-Tor): reversed OC levels to slightly below that of Sham group
loss of trabecular bone volume at the proximal tibia [2]: very effective in preventing loss of trabecular bone volume
Orx-induced increase in bone turnover parameters at the proximal tibia [2]: significantly inhibited
Bone Form Rate, Bone Volume Ref [2, 4]: 42.70 %/yr
Bone Form. Rate, Bone Surface Ref [2, 4]: 10.63 um^3/um^2/yr
Bone Formation Rate, Tissue Volume Ref [2, 4]: 3.13 %/yr
Mineral Apposition Rate [2, 4]: 0.43 um/day
Mineralizing Surface [2, 4]: 5.31%
Osteoclast Number/Bone Surface [2, 4]: 3.77 #/mm
Osteoclast Surface [2, 4]: 6.35%
Trabecular Bone Volume [2, 4]: 8.26%
Trabecular Number [2, 4]: 1.75 #/mm
Trabecular Separation [2, 4]: 572 um
Trabecular Thickness [2, 4]: 47.11 um
Distal femur Bone Area [3, 4]: 0.674 cm^2
Distal femur Bone Mineral Content [3, 4]: 0.162 gm
Distal femur Bone Mineral Density [3, 4]: 0.240 gm/cm^2
Midshaft femur Bone Area [3, 4]: 1.128 cm^2
Midshaft femur Bone Mineral Content [3, 4]: 0.281 gm
Midshaft femur Bone Mineral Density [3, 4]: 0.250 gm/cm^2
Proximal femur Bone Area [3, 4]: 0.685 cm^2
Proximal femur Bone Mineral Content [3, 4]: 0.167 gm
Proximal femur Bone Mineral Density [3, 4]: 0.245 gm/cm^2
Whole femur Bone Area [3, 4]: 2.480 cm^2
Whole femur Bone Mineral Content [3, 4]: 0.609 gm
Whole femur Bone Mineral Density [3, 4]: 0.246 gm/cm^2
bone mineral density at the midshaft femur (DXA) ([3]; Orx rats, 6 weeks): did not show any effect
bone mass of the whole femur (DXA) ([3]; Orx rats): did not exhibit any significant effect
loss in bone mineral density at the proximal femur (DXA) ([3]; Orx rats, 6 weeks): somewhat helpful in preventing this loss
bone density at the distal femur (DXA) ([3]; Orx rats, 6 weeks): significantly improved overall density

Reference: US7524866B2, “Prevention and treatment of androgen—deprivation induced osteoporosis” (GTx, Inc., priority 2001, dated 2009)
